Measured values taken from ChEMBL document CHEMBL1201862, “PubChem BioAssay data set” (2004).
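A five-concentration, 48-hour dose response in 96-well plates underlies each endpoint, interpolated linearly between surrounding concentrations. GI50: concentration for 50% inhibition of growth.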 Activity calls are given as the source filed them. Rule as the data show it: active = GI50 up to about 1.1 µM and inactive = higher.

Assays:
Test in all cases: DTP human tumour cell line panel, 48 h
[1] = system: DMS-114
[2] = system: DMS-273
[3] = system: M19-MEL
[4] = system: XF498
[5] = system: BT-549
[6] = system: Hs-578T
[7] = system: T47D
[8] = system: HOP-18

| Structure (SMILES) | GI50 [1] | GI50 [2] | GI50 [3] | GI50 [4] | GI50 [5] | GI50 [6] | GI50 [7] | GI50 [8] |
| --- | --- | --- | --- | --- | --- | --- | --- | --- |
| CC1=CC(=O)C(=O)C2=C1OC1(C2)C(C)CCC2C3(C)CCC(O)C(C)(C)C3CCC21C (stereo not drawn) | 14.9 µM (inactive) | 24.9 µM (inactive) | 18.4 µM (inactive) | 18.2 µM (inactive) | – | – | – | – |
| COC(=O)c1c2c(cc3c1CC1(Cc4ccccc4C1)C3)CCC2 | – | – | – | – | 20.9 µM (inactive) | 22.9 µM (inactive) | 15.8 µM (inactive) | – |
| O=c1oc2c3ccc4ccccc4c3n(Cc3nc4ccccc4[nH]3)c2c2ccccc12 | 4.95 µM (inactive) | – | 5.46 µM (inactive) | – | – | – | – | 7.57 µM (inactive) |
| O=C(O)CN(CC(=O)O)Cc1cc2c(cc1O)Oc1cc(O)c(CN(CC(=O)O)CC(=O)O)cc1C21OC(=O)c2ccccc21 [OFTASCEINE] | – | – | – | – | > 100 µM (inactive) | > 100 µM (inactive) | > 100 µM (inactive) | – |
| O=C(/C=C/c1ccccc1)CSc1nc[nH]n1 | – | – | – | – | > 100 µM (inactive) | – | – | – |
| O=C1/C(=N\O)C2CCC1C2 (stereo not drawn) | > 100 µM (inactive) | > 100 µM (inactive) | > 100 µM (inactive) | – | – | – | – | > 100 µM (inactive) |
| Nc1nncc2[nH]nnc12 | – | – | – | – | > 100 µM (inactive) | > 100 µM (inactive) | > 100 µM (inactive) | – |
| O=C1c2ccccc2NC(c2cc(Cl)cc(Cl)c2O)N1CCc1ccccn1 (stereo not drawn) | – | – | – | – | > 100 µM (inactive) | 55.8 µM (inactive) | 26.7 µM (inactive) | – |
| O=C1CSC(c2ccccc2O)N1c1ccc(-n2c(-c3ccccc3)nc3ccccc3c2=O)cc1 (stereo not drawn) | – | – | – | – | 21.6 µM (inactive) | 23.4 µM (inactive) | 14.9 µM (inactive) | – |
| O[C@H]1[C@H](O)[C@@H](O)[C@H](O)[C@@H](O)[C@H]1O [INOSITOL] | – | – | – | – | > 1000 µM (inactive) | > 1000 µM (inactive) | > 1000 µM (inactive) | – |
| O=C(/C=C/c1ccc(Oc2cc(C(=O)/C=C/c3ccc(O)cc3)c(O)cc2O)cc1)c1ccc(O)cc1O [RHUSCHALCONE II] | – | – | – | – | 9.84 µM (inactive) | 7.28 µM (inactive) | 5.93 µM (inactive) | – |
| CCN(CC)CCN1CCN=C2c3cc(OC)ccc3Nc3c([N+](=O)[O-])ccc1c32 | – | – | – | – | – | – | 5.65 µM (inactive) | – |
| Cc1ccc(N2C3=C(CC4=C2CC(C)(C)CC4=O)C(=O)CC(C)(C)C3)cc1 | – | – | – | – | > 100 µM (inactive) | 20.6 µM (inactive) | – | – |
| Nc1ccc2c(c1)Nc1c3ccccc3nc3cccc-2c13 | – | – | – | – | 3.6 µM (inactive) | 2.03 µM (inactive) | – | – |
| COC1(OC)C=CC(=O)C=C1 | – | – | – | – | 3.55 µM (inactive) | 9.84 µM (inactive) | 3.22 µM (inactive) | – |
| COC(=O)C1=C(C(=O)OC)SC(=C2SC3=C(SC(=C4SCCS4)S3)S2)S1 | – | – | – | – | > 100 µM (inactive) | 86.5 µM (inactive) | > 100 µM (inactive) | – |
| COc1cc(C2S/C(=C/c3ccccc3)C(=O)N2c2cc(Cl)c(Cl)cc2Cl)cc(OC)c1OC (stereo not drawn) | – | – | – | – | 23.7 µM (inactive) | 9.27 µM (inactive) | > 50.8 µM (inactive) | – |
| N=C(N)NCCNC(=N)N | – | – | – | – | > 100 µM (inactive) | > 100 µM (inactive) | 84.3 µM (inactive) | – |
| CC(=O)c1c(O)ccc2c1c1c(n2C)C(=O)c2ccccc2C1=O | – | – | – | – | > 100 µM (inactive) | 2.82 µM (inactive) | 1.45 µM (inactive) | – |
| CCN1/C(=C/C(C)=C/c2sc3ccccc3[n+]2CC)Sc2ccccc21 | 0.082 µM (active) | 0.064 µM (active) | 0.173 µM (active) | 0.0762 µM (active) | – | – | – | – |
| O=C(CSc1nc2ccccc2c(=O)n1-c1ccccc1)N/N=C1\C(=O)Nc2ccc(Br)cc21 | – | – | – | – | 10.3 µM (inactive) | 7.05 µM (inactive) | 4.92 µM (inactive) | – |
| CN(C)CC/C(=N\Nc1c(Cl)cccc1Cl)c1ccccc1 | 17.3 µM (inactive) | 16.8 µM (inactive) | 18.3 µM (inactive) | – | – | – | – | 15.1 µM (inactive) |
| Cc1cccc(CP(Cc2cccc(C)c2)CC2(Cp3c4ccccc4c4ccccc43)COC2)c1 | – | – | – | – | 3.96 µM (inactive) | – | 1.73 µM (inactive) | – |
| O=c1cc(-c2ccc(O)cc2)oc2cc(O)cc(O)c12 [APIGENIN] | 32.3 µM (inactive) | 18.6 µM (inactive) | 33.5 µM (inactive) | 24.2 µM (inactive) | – | – | – | – |
| OC[C@H]1O[C@@H](Oc2cc(O)cc(/C=C/c3ccc(O)cc3)c2)[C@H](O)[C@@H](O)[C@@H]1O [PICEID] | – | – | – | – | > 100 µM (inactive) | > 100 µM (inactive) | – | – |
| Cc1cc(NS(=O)(=O)c2ccc(NC(=O)c3cccc4c(=O)c5ccccc5[nH]c34)cc2)no1 | 46 µM (inactive) | – | 39.4 µM (inactive) | 13.6 µM (inactive) | – | – | – | 10.2 µM (inactive) |
| Cc1nn2c(C(=O)N/N=C/c3ccccc3O)c(C)nc2s1 | – | – | – | – | > 100 µM (inactive) | > 100 µM (inactive) | 61.5 µM (inactive) | – |
| COc1ccc(C(SC2C(O)C(CO)OC2n2ccc(=O)[nH]c2=O)(c2ccccc2)c2ccc(OC)cc2)cc1 (stereo not drawn) | – | – | – | – | 16.6 µM (inactive) | 20.9 µM (inactive) | 16.6 µM (inactive) | – |
| Cc1ccc(NC(=O)c2cccc(OP(=O)(O)Nc3ccc(C)cc3)c2)cc1 | – | – | – | – | > 100 µM (inactive) | > 100 µM (inactive) | 79.3 µM (inactive) | – |
| Cn1cnc(C(N)=[Se])c1N | – | – | – | – | 1.13 µM (inactive) | 3.74 µM (inactive) | 3.65 µM (inactive) | – |
